Results on 15 molecules are retold here after patent US11034725B2, “Compositions and methods for treating cardiovascular disease” (Genentech, Inc., priority 2016, dated 2021).

Assay [1] has as its target PCSK9 (Homo sapiens, UniProt Q8NBP7). In words: PCSK9/EGF(A) TR-FRET binding assay. The conditions noted are these: TR-FRET, Example 7; read-out: PCSK9/EGF(A) IC50.
The test system of assay [2] is His-EGF(A)-Fc. In words: His-EGF(A)-Fc TR-FRET counterscreen.
Assay [3] deals with T1, PCSK9Δhelix (Homo sapiens, UniProt Q8NBP7).
T1 construct: Human PCSK9 construct M1-Q692 with an engineered TEV site (residue deletion Y166, R167); made in house; host or cells: CHO
In words: PCSK9Δhelix/Ab20 TR-FRET binding assay.

Setting [4] is: TR-FRET, Example 7, read-out: PCSK9Δhelix/Ab20 IC50.
Setting [5] is: TR-FRET counterscreen, Table 8D, * = some inhibition at highest concentrations, not sufficient to fit an IC50.

Where two headings read alike, the source gives them in different places. Bridge positions count the residues as written; N and C are the ends. Square brackets hold non-standard residues; d marks the D form. Peptide text beside a SMILES is read from it. * marks the point of attachment. Fmoc = O=C(OCC1c2ccccc2-c2ccccc21)*; Aun = NCCCCCCCCCCC(=O)O

T1 sequence (Q8NBP7 with tags, fused parts or gaps limits assumed): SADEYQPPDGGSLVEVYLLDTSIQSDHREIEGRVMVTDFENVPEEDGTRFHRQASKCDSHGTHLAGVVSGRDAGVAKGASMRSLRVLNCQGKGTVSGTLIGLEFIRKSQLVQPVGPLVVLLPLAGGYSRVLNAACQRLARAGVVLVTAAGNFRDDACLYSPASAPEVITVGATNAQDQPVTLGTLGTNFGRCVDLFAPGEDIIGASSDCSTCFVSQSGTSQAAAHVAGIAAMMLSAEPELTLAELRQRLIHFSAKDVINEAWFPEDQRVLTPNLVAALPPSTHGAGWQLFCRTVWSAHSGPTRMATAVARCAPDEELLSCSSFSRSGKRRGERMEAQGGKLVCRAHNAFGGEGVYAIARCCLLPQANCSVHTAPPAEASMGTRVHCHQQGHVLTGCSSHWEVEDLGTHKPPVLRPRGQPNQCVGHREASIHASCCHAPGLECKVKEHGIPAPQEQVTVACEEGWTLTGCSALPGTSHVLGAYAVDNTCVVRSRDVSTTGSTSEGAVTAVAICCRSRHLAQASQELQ
T1 sequence (Q8NBP7 31-152 partner limits assumed): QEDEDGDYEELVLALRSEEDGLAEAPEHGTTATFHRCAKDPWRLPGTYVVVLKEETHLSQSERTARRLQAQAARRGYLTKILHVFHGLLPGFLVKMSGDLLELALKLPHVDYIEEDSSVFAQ
Sequence of PCSK9 (Q8NBP7 153-692): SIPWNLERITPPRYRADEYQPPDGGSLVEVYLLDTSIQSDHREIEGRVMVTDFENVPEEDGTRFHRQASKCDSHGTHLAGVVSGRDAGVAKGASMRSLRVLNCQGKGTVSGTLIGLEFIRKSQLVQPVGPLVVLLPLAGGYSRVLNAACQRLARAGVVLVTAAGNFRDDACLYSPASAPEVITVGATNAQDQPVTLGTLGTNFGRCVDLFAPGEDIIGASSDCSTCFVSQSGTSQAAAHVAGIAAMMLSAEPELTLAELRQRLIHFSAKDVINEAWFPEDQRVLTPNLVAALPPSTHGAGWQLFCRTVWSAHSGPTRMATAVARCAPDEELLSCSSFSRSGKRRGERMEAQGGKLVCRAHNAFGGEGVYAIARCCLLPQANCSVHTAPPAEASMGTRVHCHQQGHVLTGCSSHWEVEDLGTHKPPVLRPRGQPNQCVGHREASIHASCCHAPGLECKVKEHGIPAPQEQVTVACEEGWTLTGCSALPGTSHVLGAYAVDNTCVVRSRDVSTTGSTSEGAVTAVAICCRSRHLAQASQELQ
Sequence of PCSK9 (Q8NBP7 31-152 partner limits assumed): as the sequence (Q8NBP7 31-152 partner limits assumed) above

Regarding `CC[C@H](C)[C@@H]1NC(=O)[C@H](CCCNC(=N)N)NC(=O)CNC(=O)[C@H](CC(C)C)NC(=O)[C@H](CC(N)=O)NC(=O)[C@H](Cc2c[nH]c3ccccc23)NC(=O)[C@@H](NC(=O)CNC(=O)[C@H](CO)NC(=O)CNC(=O)[C@@H](NC(=O)[C@H](Cc2c[nH]c3ccccc23)NC(=O)[C@H](CC(=O)O)NC(=O)[C@H](CC(C)C)NC(=O)[C@H](Cc2ccc(O)cc2)NC(=O)[C@H](CCC(=O)O)NC(=O)[C@H](CCC(=O)O)NC(=O)[C@H](Cc2c[nH]c3ccccc23)NC(=O)[C@H](CO)NC(=O)[C@@H](NC(=O)[C@H](Cc2ccccc2)NC(=O)[C@@H](NC(=O)[C@@H](NC(C)=O)[C@@H](C)O)C(C)C)[C@@H](C)O)C(C)C)CSSC[C@@H](C(N)=O)NC(=O)CNC(=O)[C@H](CCC(N)=O)NC(=O)[C@H](CO)NC(=O)CNC1=O` [Compound 11] (Ac-TVFTSWEEYLDWVGSGCWNLGRIGSQGC-NH2; disulfide 17-28), the IC50 in assay [1] was 340 nM; in assay [2] (counterscreen, Example 7) it was more than 50 µM.
For `CC[C@H](C)[C@@H]1NC(=O)[C@H](CCCNC(=N)N)NC(=O)[C@H](CCC(N)=O)NC(=O)[C@H](CC(C)C)NC(=O)[C@H](CC(N)=O)NC(=O)[C@H](Cc2c[nH]c3ccccc23)NC(=O)[C@@H]2CCCN2C(=O)[C@H](CC(C)C)NC(=O)[C@H](CCCNC(=N)N)NC(=O)[C@@H](NC(=O)CNC(=O)CNC(=O)[C@H](CO)NC(=O)CNC(=O)[C@@H](NC(=O)[C@H](Cc2c[nH]c3ccccc23)NC(=O)[C@H](CC(=O)O)NC(=O)[C@H](CC(C)C)NC(=O)[C@H](Cc2ccc(O)cc2)NC(=O)[C@H](CCC(=O)O)NC(=O)[C@H](CCC(=O)O)NC(=O)[C@H](Cc2c[nH]c3ccccc23)NC(=O)[C@H](CO)NC(=O)[C@@H](NC(=O)[C@H](Cc2ccccc2)NC(=O)[C@@H](NC(=O)[C@@H](NC(C)=O)[C@@H](C)O)C(C)C)[C@@H](C)O)C(C)C)CSSC[C@@H](C(N)=O)NC(=O)[C@@H]2CCCN2C(=O)[C@H](CC(C)C)NC(=O)CNC1=O` [Compound 25] (Ac-TVFTSWEEYLDWVGSGGCRLPWNLQRIGLPC-NH2; disulfide 18-31), in assay [3], the “inhibition in the PCSK9Δhelix/Ab20 binding assay” value was “potent inhibitors”. Besides, the IC50 in assay [3] (setting [4]) was 83 nM; in assay [2] (counterscreen, Example 7), more than 50 µM.
The like results for `CC[C@H](C)[C@@H]1NC(=O)[C@H](CCCNC(=N)N)NC(=O)[C@H](CCC(N)=O)NC(=O)[C@H](CC(C)C)NC(=O)[C@H](CC(N)=O)NC(=O)[C@H](Cc2c[nH]c3ccccc23)NC(=O)[C@@H]2CCCN2C(=O)[C@H](CC(C)C)NC(=O)[C@H](Cc2ccccc2)NC(=O)[C@@H](NC(=O)CNC(=O)CNC(=O)[C@H](CO)NC(=O)CNC(=O)[C@@H](NC(=O)[C@H](Cc2c[nH]c3ccccc23)NC(=O)[C@H](CC(=O)O)NC(=O)[C@H](CC(C)C)NC(=O)[C@H](Cc2ccc(O)cc2)NC(=O)[C@H](CCC(=O)O)NC(=O)[C@H](CCC(=O)O)NC(=O)[C@H](Cc2c[nH]c3ccccc23)NC(=O)[C@H](CO)NC(=O)[C@@H](NC(=O)[C@H](Cc2ccccc2)NC(=O)[C@@H](NC(=O)[C@@H](NC(C)=O)[C@@H](C)O)C(C)C)[C@@H](C)O)C(C)C)CSSC[C@@H](C(N)=O)NC(=O)[C@H](CC(C)C)NC(=O)[C@H](CC(C)C)NC(=O)CNC1=O` [Compound 38] (Ac-TVFTSWEEYLDWVGSGGCFLPWNLQRIGLLC-NH2; disulfide 18-31) were, in that order, “potent inhibitors”, 3 nM and more than 50 µM.
As to `CC[C@H](C)[C@@H]1NC(=O)[C@H](CCCNC(=N)N)NC(=O)[C@H](CCCCN)NC(=O)[C@H](CC(C)C)NC(=O)[C@H](CC(N)=O)NC(=O)[C@H](Cc2c[nH]c3ccccc23)NC(=O)[C@@H](NC(=O)CNC(=O)[C@H](CO)NC(=O)CNC(C)=O)CSSC[C@@H](C(=O)N[C@@H](Cc2c[nH]c3ccccc23)C(N)=O)NC(=O)CNC(=O)[C@H](CCC(N)=O)NC(=O)[C@H](CO)NC(=O)CNC1=O` [Compound 40] (Ac-GSGCWNLKRIGSQGCW-NH2; disulfide 4-15), the IC50 is 2410 nM in assay [3] (PCSK9Δhelix/Ab20 IC50, TR-FRET, Table 8D, disulfide-cyclized extension peptides) and more than 50 µM in assay [2] (setting [5]).
As to `CC[C@H](C)[C@@H]1NC(=O)[C@H](CCCNC(=N)N)NC(=O)[C@H](CCCCN)NC(=O)[C@H](CC(C)C)NC(=O)[C@H](CC(N)=O)NC(=O)[C@H](Cc2c[nH]c3ccccc23)NC(=O)[C@H](CC(C)C)NC(=O)[C@@H](NC(=O)[C@H](CCSC)NC(C)=O)CSSC[C@@H](C(=O)N[C@@H](CCC(=O)O)C(=O)N[C@@H](Cc2ccc(O)cc2)C(N)=O)NC(=O)[C@H](CCC(N)=O)NC(=O)[C@H](CO)NC(=O)CNC1=O` [Compound 63] (Ac-MCLWNLKRIGSQCEY-NH2; disulfide 2-13), the “inhibition in the PCSK9Δhelix/Ab20 binding assay” value in assay [3] is “low micromolar range”. The IC50 in assay [3] (TR-FRET, Table 8D, disulfide-cyclized extension peptides, read-out: PCSK9Δhelix/Ab20 IC50) was 6000 nM; in assay [2] (setting [5]), 41 µM.
For `CC(=O)N[C@H]1CSSC[C@@H](C(N)=O)NC(=O)CCCCCCCCCCNC(=O)[C@H](CCCNC(=N)N)NC(=O)[C@H](CCC(N)=O)NC(=O)[C@H](CC(C)C)NC(=O)[C@H](CC(N)=O)NC(=O)[C@H](Cc2c[nH]c3ccccc23)NC(=O)[C@@H]2CCCN2C(=O)[C@H](CC(C)C)NC(=O)[C@H](CCCNC(=N)N)NC1=O` [Compound 83] (Ac-CRLPWNLQR[Aun]C-NH2; disulfide 1-11 (inferred)), in assay [3], the “inhibition in the PCSK9Δhelix/Ab20 binding assay” value is “removes inhibition”. This molecule also registered an IC50 in assay [2] (setting [5]) of more than 50 µM.
For the molecule `CC[C@H](C)[C@H](NC(=O)[C@H](CCCNC(=N)N)NC(=O)[C@H](CCCCN)NC(=O)[C@H](CC(C)C)NC(=O)[C@H](CC(N)=O)NC(=O)[C@H](Cc1c[nH]c2ccccc12)NC(=O)[C@H](C)NC(=O)CCCCCNC(=O)[C@@H](NC(=O)[C@H](Cc1c[nH]c2ccccc12)NC(=O)[C@H](CC(=O)O)NC(=O)[C@H](CC(C)C)NC(=O)[C@H](Cc1ccc(O)cc1)NC(=O)[C@H](CCC(=O)O)NC(=O)[C@H](CCC(=O)O)NC(=O)[C@H](Cc1c[nH]c2ccccc12)NC(=O)[C@H](CO)NC(=O)[C@@H](NC(=O)[C@H](Cc1ccccc1)NC(=O)[C@@H](NC(=O)[C@@H](NC(C)=O)[C@@H](C)O)C(C)C)[C@@H](C)O)C(C)C)C(=O)NCC(=O)N[C@@H](CO)C(N)=O` [Compound 91], the IC50 is 10 nM in assay [3] (setting [4]) and more than 50 µM in assay [2] (counterscreen, Example 7).
As for `CC[C@H](C)[C@H](NC(=O)[C@H](CCCNC(=N)N)NC(=O)[C@H](CCCCN)NC(=O)[C@H](CC(C)C)NC(=O)[C@H](CC(N)=O)NC(=O)[C@H](Cc1c[nH]c2ccccc12)NC(=O)[C@H](C)NC(=O)CCCCCNC(=O)[C@@H](NC(=O)[C@H](Cc1c[nH]c2ccccc12)NC(=O)[C@H](CC(=O)O)NC(=O)[C@H](CC(C)C)NC(=O)[C@H](Cc1ccc(O)cc1)NC(=O)[C@H](CCC(=O)O)NC(=O)[C@H](CCC(=O)O)NC(=O)[C@H](Cc1c[nH]c2ccccc12)NC(=O)[C@H](CO)NC(=O)[C@@H](NC(=O)[C@H](Cc1ccccc1)NC(=O)[C@@H](NC(=O)[C@@H](NC(C)=O)[C@@H](C)O)C(C)C)[C@@H](C)O)C(C)C)C(=O)NCC(N)=O` [Compound 92], the IC50 in assay [3] (setting [4]) was 13 nM; in assay [2] (counterscreen, Example 7), more than 50 µM.
As for `CC[C@H](C)[C@H](NC(=O)[C@H](CCCNC(=N)N)NC(=O)[C@H](CCCCN)NC(=O)[C@H](CC(C)C)NC(=O)[C@H](CC(N)=O)NC(=O)[C@H](Cc1c[nH]c2ccccc12)NC(=O)[C@H](C)NC(=O)CCCCCNC(=O)[C@@H](NC(=O)[C@H](Cc1c[nH]c2ccccc12)NC(=O)[C@H](CC(=O)O)NC(=O)[C@H](CC(C)C)NC(=O)[C@H](Cc1ccc(O)cc1)NC(=O)[C@H](CCC(=O)O)NC(=O)[C@H](CCC(=O)O)NC(=O)[C@H](Cc1c[nH]c2ccccc12)NC(=O)[C@H](CO)NC(=O)[C@@H](NC(=O)[C@H](Cc1ccccc1)NC(=O)[C@@H](NC(=O)[C@@H](NC(C)=O)[C@@H](C)O)C(C)C)[C@@H](C)O)C(C)C)C(N)=O` [Compound 93], the IC50 was 16 nM in assay [3] (setting [4]) and more than 50 µM in assay [2] (counterscreen, Example 7).
For `CC(=O)N[C@H](C(=O)N[C@H](C(=O)N[C@@H](Cc1ccccc1)C(=O)N[C@H](C(=O)N[C@@H](CO)C(=O)N[C@@H](Cc1c[nH]c2ccccc12)C(=O)N[C@@H](CCC(=O)O)C(=O)N[C@@H](CCC(=O)O)C(=O)N[C@@H](Cc1ccc(O)cc1)C(=O)N[C@@H](CC(C)C)C(=O)N[C@@H](CC(=O)O)C(=O)N[C@@H](Cc1c[nH]c2ccccc12)C(=O)N[C@H](C(=O)NCCCCCC(=O)N[C@@H](C)C(=O)N[C@@H](Cc1c[nH]c2ccccc12)C(=O)N[C@@H](CC(N)=O)C(=O)N[C@@H](CC(C)C)C(=O)N[C@@H](CCCCN)C(=O)N[C@@H](CCCNC(=N)N)C(N)=O)C(C)C)[C@@H](C)O)C(C)C)[C@@H](C)O` [Compound 94], the IC50 is 1410 nM in assay [3] (setting [4]) and more than 50 µM in assay [2] (counterscreen, Example 7).
Regarding `CC[C@H](C)[C@@H]1NC(=O)[C@H](CCCNC(=N)N)NC(=O)[C@H](CCCCN)NC(=O)[C@H](CC(C)C)NC(=O)[C@H](CC(N)=O)NC(=O)[C@H](Cc2c[nH]c3ccccc23)NC(=O)[C@@H](NC(=O)CNC(=O)[C@H](CO)NC(=O)CNC(=O)OCC2c3ccccc3-c3ccccc32)CSSC[C@@H](C(N)=O)NC(=O)CNC(=O)[C@H](CCC(N)=O)NC(=O)[C@H](CO)NC(=O)CNC1=O` [Compound 98] (Fmoc-GSGCWNLKRIGSQGC-NH2; disulfide 4-15), the IC50 was 3600 nM in assay [3] (PCSK9Δhelix/Ab20 IC50, TR-FRET, Example 7) and more than 50 µM in assay [2] (setting [5]).
For the molecule “Ac-TVFTSWEEYLDWVGGSGKLWNLGRV-NH2 [Compound 8]”, the IC50 in assay [3] (setting [4]) was 49 nM; in assay [2] (counterscreen, Example 7), more than 50 µM.
Turning to “Ac-TVFTSWEEYLDWVGSGKLWNL-NH2 [Compound 6]”, the IC50 in assay [3] (setting [4]) is 10000 nM; in assay [2] (counterscreen, Example 7), more than 50 µM.
On to “Ac-TVFTSWEEYLDWVGSGKLWNLG-NH2 [Compound 5]”, for which the IC50 in assay [3] (setting [4]) was 11100 nM; in assay [2] (counterscreen, Example 7), more than 50 µM.
Taken in the same sequence, the figures for “Ac-TVFTSWEEYLDWVGSGKLWNLGR-NH2 [Compound 4]” were 1520 nM and more than 50 µM.
